Test results published in patent publication US20160317676A1, “METHODS AND COMPOSITIONS FOR DELIVERY OF NUCLEIC ACIDS” (Tekmira Pharmaceuticals Corporation, priority 2009, published 2016).
“And” between values parts separate entries of the source, which are not always exact repeats. Identical values can stand only once.

Tests used:
[1] = system: Factor VII; test: In vivo mouse Factor VII silencing model (FVII siRNA in lipid formulations, serum FVII chromogenic assay); design: species or system C57Bl/6 mice; settings: for ED50: dose giving 50% reduction in plasma FVII vs control animals, i.v. tail vein, 24 h, FVII siRNA formulation; for Lipid A ED50: Lipid A by itself; for Lipid B ED50: Lipid B by itself; for % residual FVII: 40% cationic lipid/10% DSPC/40% cholesterol/10% PEG-DMG, FIG. 4
Procedure: C57BL/6 mice (Charles River Labs, MA) received either saline or siRNA in desired formulations via tail vein injection at a volume of 0.01 mL/g. At various time points post-administration, animals were anesthesized by isofluorane inhalation and blood was collected into serum separator tubes by retro orbital bleed. Serum levels of Factor VII protein were determined in samples using a chromogenic assay (Coaset Factor VII, DiaPharma Group, OH or Biophen FVII, Aniara Corporation, OH) according to manufacturer protocols. A standard curve was generated using serum collected from saline treated animals. In experiments where liver mRNA levels were assessed, at various time points post-administration, animals were sacrificed and livers were harvested and snap frozen in liquid nitrogen. Frozen liver tissue was ground into powder. Tissue lysates were prepared and liver mRNA levels of Factor VII and apoB were determined using a branched DNA assay (QuantiGene Assay, Panomics, CA).
Factor VII (FVII), a prominent protein in the coagulation cascade, is synthesized in the liver (hepatocytes) and secreted into the plasma. FVII levels in plasma can be determined by a simple, plate-based colorimetric assay. As such, FVII represents a convenient model for determining sirna-mediated downregulation of hepatocyte-derived proteins, as well as monitoring plasma concentrations and tissue distribution of the nucleic acid lipid particles and siRNA.
C57BL/6 mice (Charles River Labs, MA) received either saline or formulated siRNA via tail vein injection. At various time points after administration, serum samples were collected by retroorbital bleed. Serum levels of Factor VII protein were determined in samples using a chromogenic assay (Biophen FVII, Aniara Corporation, OH). To determine liver mRNA levels of Factor VII, animals were sacrificed and livers were harvested and snap frozen in liquid nitrogen. Tissue lysates were prepared from the frozen tissues and liver mRNA levels of Factor VII were quantified using a branched DNA assay (QuantiGene Assay, Panomics, CA).
FVII activity was evaluated in FVII siRNA-treated animals at 48 hours after intravenous (bolus) injection in C57BL/6 mice. FVII was measured using a commercially available kit for determining protein levels in serum or tissue, following the manufacturer's instructions at a microplate scale. FVII reduction was determined against untreated control mice, and the results were expressed as % Residual FVII. Two dose levels (0.05 and 0.005 mg/kg FVII siRNA) were used in the screen of each novel liposome composition.
Test formulations were initially assessed for their FVII knockdown in female 7-9 week old, 15-25 g, female C57B1/6 mice at 0.1, 0.3, 1.0 and 5.0 mg/kg with 3 mice per treatment group. All studies included animals receiving either phosphate-buffered saline (PBS, Control group) or a benchmark formulation. Formulations were diluted to the appropriate concentration in PBS immediately prior to testing. Mice were weighed and the appropriate dosing volumes calculated (10 μl/g body weight). Test and benchmark formulations as well as PBS (for Control animals) were administered intravenously via the lateral tail vein. Animals were anesthetised 24 h later with an intraperitoneal injection of Ketamine/Xylazine and 500-700 μl of blood was collected by cardiac puncture into serum separator tubes (BD Microtainer). Blood was centrifuged at 2,000×g for 10 min at 15° C. and serum was collected and stored at −70° C. until analysis. Serum samples were thawed at 37° C. for 30 min, diluted in PBS and aliquoted into 96-well assay plates. Factor VII levels were assessed using a chromogenic assay (Biophen FVII kit, Hyphen BioMed) according to manufacturer's instructions and absorbance measured in microplate reader equipped with a 405 nm wavelength filter. […]

[2] = Determination of pKa of formulated lipids with the fluorescent probe TNS; settings: for Lipid B pKa (±0.2): Lipid B by itself, formulation 40:10:40:10
Procedure: The pKa values for the different ionizable cationic lipids were determined essentially as described (Eastman et al., 1992 Biochemistry 31:4262-4268, which is incorporated by reference in its entirety) using the fluorescent probe 2-(p-toluidino)-6-naphthalenesulfonic acid (TNS), which is non-fluorescent in water but becomes appreciably fluorescent when bound to membranes. Vesicles composed of cationic lipid/DSPC/CH/PEG-c-DOMG (40:10:40:10 mole ratio) were diluted to 0.1 mM in buffers (130 mM NaCl, 10 mM CH3COONH4, 10 mM MES, 10 mM HEPES) of various pH values ranging from 2 to 11. An aliquot of the TNS aqueous solution (1 μM final) was added to the diluted vesicles and after a 30 second equilibration period the fluorescent of the TNS-containing solution was measured at excitation and emission wavelengths of 321 nm and 445 nm, respectively. The pKa of the cationic lipid-containing vesicles was determined by plotting the measured fluorescence against the pH of the solutions and fitting the data to a Sigmodial curve using the commercial graphing program IgorPro.

[3] = probe 2-(p-toluidino)-6-naphthalenesulfonic acid (TNS), 1 µM final, pKa, TNS assay, vesicles cationic lipid/DSPC/CH/PEG-c-DOMG 40:10:40:10
[4] = TNS assay, vesicles cationic lipid/DSPC/CH/PEG-c-DOMG 40:10:40:10

Structure (SMILES)	ED50 [1]	pKa [2, 3]	further results
CCCCC/C=C\C/C=C\CCCCCCCCC(CCCCCCCC/C=C\C/C=C\CCCCC)OC(=O)CCCN(C(C)C)C(C)C [DLin-M-C3-DIPA]	4.50 mg/kg and 4.5 mg/kg	–	–
CCCCC/C=C\C/C=C\CCCCCCCCC1(CCCCCCCC/C=C\C/C=C\CCCCC)OCC(CCCCN(C)C)CO1 [DLin-K6S-C4-DMA]	4.00 mg/kg	7.61	–
CCCCC/C=C\C/C=C\CCCCCCCCC1(CCCCCCCC/C=C\C/C=C\CCCCC)OCC(CCN(C)C)O1 (stereo not shown) [DLin-K5-C2-DMA]	0.10 mg/kg	–	pKa ([2]; probe 2-(p-toluidino)-6-naphthalenesulfonic acid (TNS), 1 µM final): 6.68
CCCCC/C=C\C/C=C\C/C=C\CCCCCC(CCCCC/C=C\C/C=C\C/C=C\CCCCC)OC(=O)CCCCN(C)C [DLen(γ)-M-C4-DMA]	0.50 mg/kg	6.75	–
CCCCC/C=C\C/C=C\C/C=C\C/C=C\CCCCC1(CCCC/C=C\C/C=C\C/C=C\C/C=C\CCCCC)OCC(CCN(C)C)O1 (stereo not shown) [DAra-K5-C2-DMA]	0.52 mg/kg	6.26	–
CCCCC/C=C\C/C=C\CCCCCCCC1OC2(CCN(C)CC2)OC1CCCCCCC/C=C\C/C=C\CCCCC (stereo not shown) [ALNY-156]	<0.1 mg/kg	–	pKa [2, 4]: 6.08
CCCCC/C=C\C/C=C\CCCCCCCCC(CCCCCCCC/C=C\C/C=C\CCCCC)OC(=O)CCCNCC [DLin-M-C3-EA]	5.00 mg/kg	–	pKa [2, 4]: 7.62
CCCCC/C=C\C/C=C\CCCCCCCCC1(CCCCCCCC/C=C\C/C=C\CCCCC)OCC(NC(=N)N)O1 (stereo not shown) [ALNY-232]	–	10	–
CCCCC/C=C\C/C=C\CCCCCCCCC1(CCCCCCCC/C=C\C/C=C\CCCCC)OC[C@@H](CCN(C)C)O1 [DLin-K-XTC2-DMA-(R)]	0.10 mg/kg	6.79	–
CCCCC/C=C\C/C=C\CCCCCCCCC(CCCCCCCC/C=C\C/C=C\CCCCC)OC(=O)CCCN(C)C [DLin-M-C3-DMA]	0.03 mg/kg	–	Lipid A ED50 ([1]; formulation 40:10:40:10): 0.030 mg/kg; Lipid A ED50 ([1]; formulation 50:10:38.5:1.5): 0.010 mg/kg; Lipid B ED50 ([1]; formulation 40:10:40:10): 0.030 mg/kg
CCCCC/C=C\C/C=C\CCCCCCCCC(CCCCCCCC/C=C\C/C=C\CCCCC)CN(C)CCNC(=N)N [ALNY-139]	5.00 mg/kg	10	–
CCCCC/C=C\C/C=C\CCCCCCCCC1(CCCCCCCC/C=C\C/C=C\CCCCC)OCC(CN(C)C)O1 (stereo not shown) [DLin-K-DMA (CDRD)]	0.40 mg/kg	–	pKa [2, 4]: 5.91
CCCCCCCCCCC(O)CN(CCN1CCN(CCN(CC(O)CCCCCCCCCC)CC(O)CCCCCCCCCC)CC1)CCN(CC(O)CCCCCCCCCC)CC(O)CCCCCCCCCC (stereo not shown) [Compound C12-200, reference compound]	–	–	Lipid B pKa (±0.2) [2]: 6.47; Lipid B ED50 ([1]; formulation 40:10:40:10): 0.030 mg/kg
CCCCC/C=C\C/C=C\CCCCCCCCC(CCCCCCCC/C=C\C/C=C\CCCCC)OC(=O)CCN(C)C [DLin-M-C2-DMA]	0.60 mg/kg and 0.6 mg/kg	–	Lipid A pKa (±0.2) ([2]; Lipid A by itself, formulation 40:10:40:10 (cationic lipid:DSPC:cholesterol:PEG-DMG)): 5.64; pKa [2, 4]: 5.64; % residual FVII ([1]; 0.05 mg/kg siRNA): about 90%; % residual FVII ([1]; 0.10 mg/kg siRNA): about 90%; Lipid A ED50 ([1]; formulation 40:10:40:10): 0.600 mg/kg
CCCCC/C=C\C/C=C\CCCCCCCCC(CCCCCCCC/C=C\C/C=C\CCCCC)OC(=O)CCCN(CC)CC [DLin-M-C3-DEA]	0.30 mg/kg and 0.3 mg/kg	–	pKa [2, 4]: 6.17
CCCCC/C=C\C/C=C\CCCCCCCCC1(CCCCCCCC/C=C\C/C=C\CCCCC)OCCC(CCN(C)C)O1 (stereo not shown) [DLin-K6A-C2-DMA]	0.25 mg/kg	6.73	–
CCCCC/C=C\C/C=C\CCCCCCCCC1(CCCCCCCC/C=C\C/C=C\CCCCC)OC[C@H](CCN(C)C)O1 [DLin-K-XTC2-DMA-(S)]	0.10 mg/kg	6.65	–
CCCCC/C=C\C/C=C\CCCCCCCCC1(CCCCCCCC/C=C\C/C=C\CCCCC)OCC(CN(C)C)CO1 [DLin-K6S-C1-DMA]	0.10 mg/kg	5.97	–

Structure (SMILES)	ED50 [1]	pKa [2, 3]	further results
CCCCC/C=C\C/C=C\CCCCCCCCC(CCCCCCCC/C=C\C/C=C\CCCCC)OC(=O)CCCCCN(C)C [DLin-M-C5-DMA]	0.65 mg/kg	–	–
CC/C=C\C/C=C\C/C=C\CCCCCCCCC1(CCCCCCCC/C=C\C/C=C\C/C=C\CC)OCC(CCN(C)C)O1 (stereo not shown) [DLen-K5-C2-DMA]	0.05 mg/kg	6.59	–
CC/C=C\C/C=C\C/C=C\C/C=C\C/C=C\C/C=C\CCCC1(CCC/C=C\C/C=C\C/C=C\C/C=C\C/C=C\C/C=C\CC)OCC(CCN(C)C)O1 (stereo not shown) [DDha-K5-C2-DMA]	0.20 mg/kg	6.09	–
CCCCC/C=C\C/C=C\CCCCCCCCC(CCCCCCCC/C=C\C/C=C\CCCCC)OC(=O)CCCN(C)CC [DLin-M-C3-MEA]	0.03 mg/kg	–	pKa [2, 4]: 6.21
CCCCC/C=C\C/C=C\CCCCCCCCC(CCCCCCCC/C=C\C/C=C\CCCCC)ON=C(C)CCN(C)C [ALNY-149]	–	–	pKa ([2]; probe 2-(p-toluidino)-6-naphthalenesulfonic acid (TNS), 1 µM final, Lipid A pKa (±0.2), Lipid A by itself, formulation 40:10:40:10 (cationic lipid:DSPC:cholesterol:PEG-DMG)): 6.05; Lipid A ED50 ([1]; formulation 40:10:40:10): 0.050 mg/kg
CCCCC/C=C\C/C=C\CCCCCCCCC(CCCCCCCC/C=C\C/C=C\CCCCC)OC(=O)C(CCN(C)C)C(=O)OC(CCCCCCCC/C=C\C/C=C\CCCCC)CCCCCCCC/C=C\C/C=C\CCCCC [TLin-MAL-C2-DMA]	–	3.93	–
CCCCC/C=C\C/C=C\CCCCCCCCC(CCCCCCCC/C=C\C/C=C\CCCCC)OC(=O)CCCNC [DLin-M-C3-MA]	5.00 mg/kg	–	–
CCCCC/C=C\C/C=C\CCCCCCCCC(CCCCCCC/C=C\C/C=C\CCCCC)OC(=O)CCC[N+](C)(C)C (stereo not shown) [DLin-M-C3-TMA]	–	> 1	Lipid B ED50 ([1]; formulation 40:10:40:10): >1.00 mg/kg
CCCCC/C=C\C/C=C\CCCCCCCCC1(CCCCCCCC/C=C\C/C=C\CCCCC)OCC(CCN(C)C)CO1 [DLin-K6S-C2-DMA]	3.00 mg/kg	7.25	–
CCCCC/C=C\C/C=C\CCCCCCCCC1(CCCCCCCC/C=C\C/C=C\CCCCC)O[C@@H]2C3CC([C@H](N(C)C)C3)[C@@H]2O1 (stereo partly shown) [ALNY-171]	0.25 mg/kg	6.63	–
CCCCC/C=C\C/C=C\CCCCCCCCOC(=O)C(CCN(C)C)C(=O)OCCCCCCCC/C=C\C/C=C\CCCCC [DLin-MAL-C2-DMA]	1.50 mg/kg	6.66	–
CCCCC/C=C\C/C=C\CCCCCCCCC1(CCCCCCCC/C=C\C/C=C\CCCCC)OCCC(CCCN(C)C)O1 (stereo not shown) [DLin-K6A-C3-DMA]	0.70 mg/kg	6.95	–
CCCCC/C=C\C/C=C\CCCCCCCC(=O)OCC(CN(C)C)OC(=O)CCCCCCC/C=C\C/C=C\CCCCC (stereo not shown) [DLin-DAP-DMA]	–	5.67	–
CCCCC/C=C\C/C=C\CCCCCCCCC(CCCCCCCC/C=C\C/C=C\CCCCC)OC(=O)CCCCN(C)C [DLin-M-C4-DMA]	0.15 mg/kg	–	Lipid B pKa (±0.2) [2]: 6.93; pKa [2, 4]: 6.93; % residual FVII ([1]; 0.05 mg/kg siRNA): about 90%; % residual FVII ([1]; 0.10 mg/kg siRNA): about 90%; Lipid B ED50 ([1]; formulation 40:10:40:10): 0.150 mg/kg
CCCCC/C=C\C/C=C\CCCCCCCCC(CCCCCCCC/C=C\C/C=C\CCCCC)CN(C)C [ALNY-181]	0.25 mg/kg	–	–
CCCCC/C=C\C/C=C\CCCCCCCCC1(CCCCCCCC/C=C\C/C=C\CCCCC)OCC(CN(C)C)O1 (stereo not shown) [DLin-K-DMA (Biofine)]	0.25 mg/kg	5.94	–
CCCCC/C=C\C/C=C\C/C=C\CCCCCC(CCCCC/C=C\C/C=C\C/C=C\CCCCC)OC(=O)CCCN(C)C [DLen(γ)-M-C3-DMA]	0.08 mg/kg	6.3	–
